Measurements as given in the supplement of paper PMC11061612.

Assays:
Experiment in all cases: Bliss excess, mean over the matrix (fraction); higher = more synergy
NB13 (Neuroblastoma) = system: NB13 (Neuroblastoma)
How it was run: (§1)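 Bliss excess equals the observed combination effect minus the expected value EA + EB − EA·EB, where EA and EB are the effects of each agent alone. Combination Emax is the second-highest inhibition within the matrix. Inhibition was scaled from CellTiter-Glo 2.0 luminescence, with 0 set by vehicle wells and 1 by blank wells, after 72 hours of two-drug dosing of cells plated in 1536-well plates.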

[1] = system: JHH-2 (Hepatocellular Carcinoma)
How it was run: as §1

PEO1 (Ovarian Carcinoma) = system: PEO1 (Ovarian Carcinoma)
How it was run: as §1

[2] = system: DMS-53 (Small Cell Lung Carcinoma)
How it was run: as §1

[3] = system: EPLC-272H (Other Solid Carcinomas)
How it was run: as §1

[4] = system: SK-HEP-1 (Hepatocellular Carcinoma)
How it was run: as §1

[5] = system: ESO26 (Esophageal Adenocarcinoma)
How it was run: as §1

[6] = system: NCI-H1703 (Squamous Cell Lung Carcinoma)
How it was run: as §1

[7] = system: OACp4C (Esophageal Adenocarcinoma)
How it was run: as §1

EW-7 (Ewing's Sarcoma) = system: EW-7 (Ewing's Sarcoma)
How it was run: as §1

[8] = system: JHU-022 (Oral Cavity Carcinoma)
How it was run: as §1

COLO-792 (Melanoma) = system: COLO-792 (Melanoma)
How it was run: as §1

[9] = system: NCI-H441 (Lung Adenocarcinoma)
How it was run: as §1

RH-41 (Rhabdomyosarcoma) = system: RH-41 (Rhabdomyosarcoma)
How it was run: as §1

HCC70 (Breast Carcinoma) = system: HCC70 (Breast Carcinoma)
How it was run: as §1

[10] = system: LS-411N (Colorectal Carcinoma)
How it was run: as §1

[11] = system: Jurkat (T-Lymphoblastic Leukemia)
How it was run: as §1

IM-9 (Non-Cancerous) = system: IM-9 (Non-Cancerous)
How it was run: as §1

KP-N-YN (Neuroblastoma) = system: KP-N-YN (Neuroblastoma)
How it was run: as §1

[12] = system: NCI-H1651 (Lung Adenocarcinoma)
How it was run: as §1

Row | SMILES | Bliss excess (NB13 (Neuroblastoma)) | Bliss excess [1] | Bliss excess (PEO1 (Ovarian Carcinoma)) | Bliss excess [2] | Bliss excess [3] | Bliss excess [4] | Bliss excess [5] | Bliss excess [6] | Bliss excess [7] | Bliss excess (EW-7 (Ewing's Sarcoma)) | Bliss excess [8] | Bliss excess (COLO-792 (Melanoma)) | Bliss excess [9] | Bliss excess (RH-41 (Rhabdomyosarcoma)) | Bliss excess (HCC70 (Breast Carcinoma)) | Bliss excess [10] | Bliss excess [11] | Bliss excess (IM-9 (Non-Cancerous)) | Bliss excess (KP-N-YN (Neuroblastoma)) | Bliss excess [12]
1 | COc1cccc(OCCCN)c1-c1cc(Nc2cnc(C#N)cn2)n[nH]1 [Prexasertib] + Cc1cc2ncnn2cc1Nc1ncc2c(n1)n(C1CCOCC1)c(=O)n2C [AZD7648] (first compound max 1 µM, 7x7, partner max 10 µM) | -0.023 | -0.0348 | -0.0117 | -0.0344 | -0.0481 | -0.0416 | 0.0142 | -0.0192 | 0.0093 | -0.0118 | -0.0661 | 0.0103 | 0.0071 | -0.0453 | -0.0053 | -0.0082 | -0.0008 | -0.014 | -0.0221 | -0.132
2 | CCN(CCO)CCCOc1ccc2c(Nc3cc(CC(=O)Nc4cccc(F)c4)[nH]n3)ncnc2c1 [AZD2811] + O=C(c1cc(Cc2n[nH]c(=O)c3ccccc23)ccc1F)N1CCN(C(=O)C2CC2)CC1 [Olaparib] (first compound max 1 µM, 7x7, partner max 10 µM) | 0.0211 | -0.0748 | -0.0019 | -0.014 | 0.0042 | -0.0121 | -0.0311 | 0.0062 | -0.0304 | 0.0067 | -0.021 | -0.0187 | -0.0417 | 0.0053 | -0.0249 | -0.0082 | 0.0634 | -0.0191 | 0.0058 | 0.0136
3 | Cc1c2c(nn1C)CSCc1cc(n(C)n1)CSc1cc(c3ccccc3c1)OCCCc1c(C(=O)O)n(C)c3c-2c(Cl)ccc13 [AZD5991] + CC1(C)CCC(CN2CCN(c3ccc(C(=O)NS(=O)(=O)c4ccc(NCC5CCOCC5)c([N+](=O)[O-])c4)c(Oc4cnc5[nH]ccc5c4)c3)CC2)=C(c2ccc(Cl)cc2)C1 [Venetoclax] (first compound max 1 µM, 7x7, partner max 1 µM) | 0.0393 | -0.0156 | -0.0145 | 0.159 | -0.015 | -0.0098 | -0.0209 | 0.0049 | 0.13 | 0.0249 | -0.0291 | 0.0312 | -0.0189 | 0.0582 | 0.0042 | 0 | 0.0116 | 0.218 | 0.0865 | -0.0327
4 | NC1(C(=O)N[C@@H](CCO)c2ccc(Cl)cc2)CCN(c2ncnc3[nH]ccc23)CC1 [Capivasertib] + CC(C)n1c(=O)n(C)c2cnc3cc(F)c(-c4ccc(OCCCN5CCCCC5)nc4)cc3c21 [AZD1390] (first compound max 10 µM, 7x7, partner max 0.3 µM) | -0.0584 | -0.0449 | -0.0601 | 0.0083 | -0.13 | -0.0321 | -0.053 | -0.0132 | -0.0479 | -0.0311 | -0.0564 | -0.0755 | -0.0711 | -0.0364 | -0.023 | -0.0267 | -0.047 | -0.0516 | -0.112 | -0.0404
5 | Cn1cnc2c(F)c(Nc3ccc(Br)cc3Cl)c(C(=O)NOCCO)cc21 [Selumetinib] + C[C@@H]1COCCN1C2=NC(=NC(=C2)C3(CC3)[S@](=N)(=O)C)C4=C5C=CNC5=NC=C4 [AZD6738] (first compound max 10 µM, 7x7, partner max 10 µM) | -0.0446 | 0.0264 | -0.0357 | -0.0272 | -0.0497 | -0.034 | -0.0189 | -0.0318 | -0.0052 | 0.0112 | -0.0175 | 0.0362 | 0.0498 | -0.0004 | 0.0731 | -0.0195 | -0.0227 | -0.0817 | -0.0431 | -0.0638
